Drawing on ChEMBL document CHEMBL6096701 (J Med Chem, 2025), this text covers EC50, Activity and CLint scaled for 34 compounds.

SMILES strings stand for the structures. Calls of active or inactive are those of the source. No cut-off for these calls is given here. A value given as a limit tells only on which side of the number the result lay.

A short description of series [1]: Upregulation of IL-10 level in human CD4+ T cell by flow cytometry analysis. The series is classed as functional, cell-based.
Series [2] deals with Cyclin-dependent kinase 8/19 (Homo sapiens, UniProt P49336+Q9BWU1). The series can be described thus: Binding affinity to CDK8/CDK19 complex in human CD4+ T cell assessed as upregulation of IL-10 level. Type of series: cell-based.
Series [3] concerns the target Glycogen synthase kinase-3 alpha (Homo sapiens) (UniProt P49840). The series can be described thus: Binding affinity to GSK3alpha (unknown origin).
The target of series [4] is Glycogen synthase kinase-3 beta (Homo sapiens) (UniProt P49841). The series can be described thus: Binding affinity to GSK3beta (unknown origin).
Series [5] deals with Cyclin-dependent kinase 2 (Homo sapiens) (UniProt P24941). The series can be described thus: Binding affinity to CDK2 (unknown origin).
Series [6] deals with Cyclin-dependent kinase 5 (Homo sapiens) (UniProt Q00535). As to the kind of experiment: Binding affinity to CDK5 (unknown origin).
In series [7] the target is Cyclin-dependent kinase 6 (Homo sapiens) (UniProt Q00534). The series can be described thus: Binding affinity to CDK6 (unknown origin).
Chain of Cyclin-dependent kinase 6 (Homo sapiens) (Q00534 whole entry): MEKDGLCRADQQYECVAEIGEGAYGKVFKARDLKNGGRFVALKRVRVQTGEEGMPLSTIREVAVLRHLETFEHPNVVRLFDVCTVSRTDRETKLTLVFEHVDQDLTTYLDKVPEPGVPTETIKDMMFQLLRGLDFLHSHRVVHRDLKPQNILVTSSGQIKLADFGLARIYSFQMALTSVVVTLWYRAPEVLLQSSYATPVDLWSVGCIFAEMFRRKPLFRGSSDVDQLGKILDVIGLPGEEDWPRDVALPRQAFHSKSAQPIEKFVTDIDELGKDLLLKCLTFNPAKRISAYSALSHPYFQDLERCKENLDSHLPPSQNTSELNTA
The target of series [8] is Cyclin-dependent kinase 7 (Homo sapiens) (UniProt P50613). As to the kind of experiment: Binding affinity to CDK7 (unknown origin).
Chain of Cyclin-dependent kinase 7 (Homo sapiens) (P50613 whole entry): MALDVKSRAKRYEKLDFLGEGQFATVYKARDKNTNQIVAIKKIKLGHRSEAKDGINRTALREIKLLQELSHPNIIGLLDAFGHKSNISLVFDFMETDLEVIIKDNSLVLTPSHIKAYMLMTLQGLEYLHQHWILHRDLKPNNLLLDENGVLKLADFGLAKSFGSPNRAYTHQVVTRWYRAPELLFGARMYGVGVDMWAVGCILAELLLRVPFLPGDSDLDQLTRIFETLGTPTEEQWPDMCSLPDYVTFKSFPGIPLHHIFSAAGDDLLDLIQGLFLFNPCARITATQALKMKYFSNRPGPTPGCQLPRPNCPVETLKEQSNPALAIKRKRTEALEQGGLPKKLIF
Series [9] addresses Cyclin-dependent kinase 9 (Homo sapiens) (UniProt P50750). The series can be described thus: Binding affinity to CDK9 (unknown origin).
Series [10] concerns the target Cyclin-dependent kinase 10 (Homo sapiens) (UniProt Q15131). The series can be described thus: Binding affinity to CDK10 (unknown origin).
Series [11] deals with Serine/threonine-protein kinase SIK1 (Homo sapiens) (UniProt P57059). The series can be described thus: Binding affinity to SIK1 (unknown origin) by FRET biochemical assay.
Chain of Serine/threonine-protein kinase SIK1 (Homo sapiens) (P57059 whole entry): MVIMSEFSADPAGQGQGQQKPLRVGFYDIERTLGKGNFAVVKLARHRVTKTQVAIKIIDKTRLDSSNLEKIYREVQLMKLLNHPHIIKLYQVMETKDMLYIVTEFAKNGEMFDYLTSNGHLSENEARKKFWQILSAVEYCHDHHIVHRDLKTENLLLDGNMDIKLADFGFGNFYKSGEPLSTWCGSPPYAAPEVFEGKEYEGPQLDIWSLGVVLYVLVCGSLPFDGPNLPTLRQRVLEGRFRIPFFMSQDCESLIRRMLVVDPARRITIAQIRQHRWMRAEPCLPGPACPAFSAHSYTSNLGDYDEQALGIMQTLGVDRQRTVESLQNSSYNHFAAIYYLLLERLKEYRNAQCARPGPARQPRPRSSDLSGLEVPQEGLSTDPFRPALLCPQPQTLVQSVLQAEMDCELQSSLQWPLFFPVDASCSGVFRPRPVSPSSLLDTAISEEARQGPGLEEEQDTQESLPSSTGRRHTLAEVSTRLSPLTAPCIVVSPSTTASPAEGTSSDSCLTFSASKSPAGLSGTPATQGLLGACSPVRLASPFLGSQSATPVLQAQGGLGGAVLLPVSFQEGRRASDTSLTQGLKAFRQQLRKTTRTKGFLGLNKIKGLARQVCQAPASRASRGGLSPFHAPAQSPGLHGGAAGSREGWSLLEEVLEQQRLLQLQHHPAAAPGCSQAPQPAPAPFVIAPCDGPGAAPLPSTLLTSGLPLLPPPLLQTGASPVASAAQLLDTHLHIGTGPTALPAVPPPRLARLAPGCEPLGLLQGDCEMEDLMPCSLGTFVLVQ
For series [12], the target named is Serine/threonine-protein kinase SIK2 (Homo sapiens) (UniProt Q9H0K1). As to the kind of experiment: Binding affinity to SIK2 (unknown origin) by FRET biochemical assay.
Chain of Serine/threonine-protein kinase SIK2 (Homo sapiens) (Q9H0K1 whole entry, looked up): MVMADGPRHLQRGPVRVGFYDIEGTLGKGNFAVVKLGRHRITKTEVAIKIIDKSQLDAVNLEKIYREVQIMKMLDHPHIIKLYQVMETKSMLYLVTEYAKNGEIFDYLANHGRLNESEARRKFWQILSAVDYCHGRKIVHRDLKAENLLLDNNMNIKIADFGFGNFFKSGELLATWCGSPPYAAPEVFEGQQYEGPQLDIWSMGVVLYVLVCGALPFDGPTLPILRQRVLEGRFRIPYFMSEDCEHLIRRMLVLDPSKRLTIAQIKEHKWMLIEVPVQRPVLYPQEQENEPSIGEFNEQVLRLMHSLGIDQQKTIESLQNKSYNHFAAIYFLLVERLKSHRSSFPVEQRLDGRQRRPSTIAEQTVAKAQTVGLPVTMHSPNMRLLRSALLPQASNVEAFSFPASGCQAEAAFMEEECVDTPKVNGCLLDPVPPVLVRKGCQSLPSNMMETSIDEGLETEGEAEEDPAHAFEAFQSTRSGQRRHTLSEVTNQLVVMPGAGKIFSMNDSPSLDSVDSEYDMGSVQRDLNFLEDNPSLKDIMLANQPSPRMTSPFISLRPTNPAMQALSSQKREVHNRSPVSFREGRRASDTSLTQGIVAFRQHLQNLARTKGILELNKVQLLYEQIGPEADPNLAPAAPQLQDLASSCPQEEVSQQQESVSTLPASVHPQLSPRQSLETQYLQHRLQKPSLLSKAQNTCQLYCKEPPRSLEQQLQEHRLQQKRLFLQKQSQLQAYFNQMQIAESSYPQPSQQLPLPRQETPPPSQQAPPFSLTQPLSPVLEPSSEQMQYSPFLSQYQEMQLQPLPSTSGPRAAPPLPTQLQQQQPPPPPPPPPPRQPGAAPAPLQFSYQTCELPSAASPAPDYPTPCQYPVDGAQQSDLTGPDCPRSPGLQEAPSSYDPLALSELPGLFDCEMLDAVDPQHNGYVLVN
The target of series [13] is Serine/threonine-protein kinase SIK3 (Homo sapiens) (UniProt Q9Y2K2). The series can be described thus: Binding affinity to SIK3 (unknown origin) by FRET biochemical assay.
Chain of Serine/threonine-protein kinase SIK3 (Homo sapiens) (Q9Y2K2 whole entry, looked up): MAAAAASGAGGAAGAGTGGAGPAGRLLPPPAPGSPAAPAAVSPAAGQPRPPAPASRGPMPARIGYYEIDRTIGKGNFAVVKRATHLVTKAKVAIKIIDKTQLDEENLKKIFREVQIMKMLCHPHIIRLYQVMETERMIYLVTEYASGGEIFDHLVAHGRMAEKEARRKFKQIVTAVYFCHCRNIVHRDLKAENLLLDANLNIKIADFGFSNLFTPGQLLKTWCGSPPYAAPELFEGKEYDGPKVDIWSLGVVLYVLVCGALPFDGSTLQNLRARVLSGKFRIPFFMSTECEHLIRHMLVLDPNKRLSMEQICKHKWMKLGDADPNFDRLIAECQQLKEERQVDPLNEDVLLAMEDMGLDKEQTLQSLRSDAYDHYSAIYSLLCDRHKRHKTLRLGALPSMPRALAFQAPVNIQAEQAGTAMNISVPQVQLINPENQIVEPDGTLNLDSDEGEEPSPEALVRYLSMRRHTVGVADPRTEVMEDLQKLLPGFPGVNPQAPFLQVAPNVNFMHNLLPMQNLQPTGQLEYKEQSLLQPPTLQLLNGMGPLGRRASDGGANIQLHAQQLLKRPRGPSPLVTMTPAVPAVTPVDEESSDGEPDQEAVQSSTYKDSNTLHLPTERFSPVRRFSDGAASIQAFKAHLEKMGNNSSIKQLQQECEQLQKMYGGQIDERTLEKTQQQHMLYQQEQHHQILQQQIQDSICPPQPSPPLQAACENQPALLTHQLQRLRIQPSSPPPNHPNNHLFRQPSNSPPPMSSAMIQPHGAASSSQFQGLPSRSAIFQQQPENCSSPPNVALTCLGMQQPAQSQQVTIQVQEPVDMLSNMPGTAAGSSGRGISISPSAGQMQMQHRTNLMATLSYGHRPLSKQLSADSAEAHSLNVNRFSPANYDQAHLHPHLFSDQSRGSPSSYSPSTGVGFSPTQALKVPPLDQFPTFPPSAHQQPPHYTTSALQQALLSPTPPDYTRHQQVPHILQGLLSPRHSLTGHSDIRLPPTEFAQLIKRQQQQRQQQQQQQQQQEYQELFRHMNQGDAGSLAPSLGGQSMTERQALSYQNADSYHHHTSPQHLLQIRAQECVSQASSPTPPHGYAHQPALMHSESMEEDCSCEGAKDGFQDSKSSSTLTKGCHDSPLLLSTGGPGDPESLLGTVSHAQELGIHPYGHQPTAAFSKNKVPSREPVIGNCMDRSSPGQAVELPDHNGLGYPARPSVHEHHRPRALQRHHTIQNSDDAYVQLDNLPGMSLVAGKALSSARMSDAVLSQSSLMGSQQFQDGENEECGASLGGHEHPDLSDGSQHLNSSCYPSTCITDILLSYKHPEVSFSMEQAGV
Series [14] can be described thus: Metabolic stability in human hepatocytes assessed as intrinsic clearance by LC-MS/MS analysis. Type of series: ADME, cell-based, Hepatocyte. As to conditions: read-out: CLH.
Series [15] in a line: Upregulation of TNF-alpha level in human CD4+ T cell by flow cytometry analysis. The series is classed as functional, cell-based. A general note: A flow cytometer gives signals particle by particle.
Series [16] is described as follows: Upregulation of IL-10 level in human whole blood cell preincubated for 30 mins followed by LPS stimulation and measured after 23 hrs by MSD analysis. The series is classed as functional, cell-based.
Series [17] in a line: Upregulation of IL-10 level in mouse whole blood cell preincubated for 30 mins followed by LPS stimulation and measured after 23 hrs by MSD analysis. Type of series: functional, cell-based.
Series [18] has as its system Mus musculus. The series can be described thus: Anti-inflammatory activity in LPS-induced male CD-1 mouse acute inflammatory model assessed as effect on IL-10 level at 50 mg/kg, sc preincubated for 15 mins followed by LPS stimulation and measured after 3.5 hrs. Type of series: functional, organism-based. The settings on record: time 225.0 min.
For series [19], the system named is Mus musculus. As to the kind of experiment: Anti-inflammatory activity in LPS-induced male CD-1 mouse acute inflammatory model assessed as peak IL-10 level at 1 mg/kg, sc preincubated for 15 mins followed by LPS stimulation and measured after 2 hrs relative to control. As to conditions: time 135 min, 2.25 h. Type of series: functional.
Series [20] concerns Mus musculus. As to the kind of experiment: Anti-inflammatory activity in LPS-induced male CD-1 mouse acute inflammatory model assessed as peak IL-10 level at 10 mg/kg, sc preincubated for 15 mins followed by LPS stimulation and measured after 2 hrs relative to control. The settings on record: time 135 min, 2.25 h. The series is classed as functional.
Series [21] concerns Mus musculus. As to the kind of experiment: Anti-inflammatory activity in LPS-induced male CD-1 mouse acute inflammatory model assessed as peak IL-10 level at 50 mg/kg, sc preincubated for 15 mins followed by LPS stimulation and measured after 2 hrs relative to control. The settings on record: time 135 min, 2.25 h. Type of series: functional.

Chain of Cyclin-dependent kinase 9 (Homo sapiens) (P50750 whole entry): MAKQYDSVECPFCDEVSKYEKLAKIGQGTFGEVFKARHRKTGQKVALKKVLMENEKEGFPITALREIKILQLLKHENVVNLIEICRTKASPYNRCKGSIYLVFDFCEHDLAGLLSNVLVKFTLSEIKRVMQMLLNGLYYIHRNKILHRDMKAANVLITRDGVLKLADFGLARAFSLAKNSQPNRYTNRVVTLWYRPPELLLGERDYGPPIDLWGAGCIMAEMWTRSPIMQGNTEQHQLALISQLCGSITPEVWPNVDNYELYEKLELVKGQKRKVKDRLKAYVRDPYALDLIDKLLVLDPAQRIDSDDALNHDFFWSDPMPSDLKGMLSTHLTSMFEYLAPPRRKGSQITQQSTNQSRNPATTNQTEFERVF
Chain of Cyclin-dependent kinase 10 (Homo sapiens) (Q15131 whole entry): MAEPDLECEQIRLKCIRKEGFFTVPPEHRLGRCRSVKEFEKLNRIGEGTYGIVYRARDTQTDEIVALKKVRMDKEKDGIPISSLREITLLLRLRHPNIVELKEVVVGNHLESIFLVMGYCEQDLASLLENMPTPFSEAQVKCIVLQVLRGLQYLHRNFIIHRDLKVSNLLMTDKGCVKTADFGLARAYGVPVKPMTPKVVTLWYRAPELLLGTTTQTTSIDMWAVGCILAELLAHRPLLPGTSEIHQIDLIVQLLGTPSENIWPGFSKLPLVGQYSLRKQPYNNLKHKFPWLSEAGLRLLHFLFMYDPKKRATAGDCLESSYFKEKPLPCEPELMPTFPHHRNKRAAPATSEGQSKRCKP
Chain of Glycogen synthase kinase-3 alpha (Homo sapiens) (P49840 2-483 limits assumed): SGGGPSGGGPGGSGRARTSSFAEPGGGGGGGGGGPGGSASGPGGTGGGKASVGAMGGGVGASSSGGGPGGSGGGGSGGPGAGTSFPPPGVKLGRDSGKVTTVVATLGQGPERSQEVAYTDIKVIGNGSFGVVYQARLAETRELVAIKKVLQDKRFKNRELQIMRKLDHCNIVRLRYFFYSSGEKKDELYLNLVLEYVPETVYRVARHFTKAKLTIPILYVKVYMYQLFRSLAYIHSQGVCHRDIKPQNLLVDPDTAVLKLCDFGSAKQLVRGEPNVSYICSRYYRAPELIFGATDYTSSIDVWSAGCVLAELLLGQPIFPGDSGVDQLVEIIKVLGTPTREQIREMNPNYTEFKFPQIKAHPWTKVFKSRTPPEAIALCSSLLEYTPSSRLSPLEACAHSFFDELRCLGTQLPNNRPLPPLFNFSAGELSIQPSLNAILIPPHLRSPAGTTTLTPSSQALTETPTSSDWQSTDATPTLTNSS

Take `N#Cc1cc(C(=O)N2CCCC(c3ccnc(-n4cccn4)n3)C2)c[nH]1` (racemic): the EC50 (commonly the concentration at which the effect is half-maximal) in series [1] is 9120 nM.
On the same count and under the same terms, as for `CC(C)COc1nccc(C2CCCN(C(=O)c3c[nH]c(C#N)c3)C2)n1` (racemic), the figure is above 25000 nM.
On to `N#Cc1cc(C(=O)N2CCC[C@H](c3ccnc(N4CCCC4)n3)C2)c[nH]1`, for which the EC50 in series [1] and in series [2] was 275 nM throughout.
In turn, `N#Cc1cc(C(=O)N2C[C@@H](c3ccnc(N4CCCC4)n3)CC(F)(F)C2)c[nH]1` yielded an EC50 in [1] of 263 nM.
In series [1], `N#Cc1c[nH]c(C(=O)N2CCOC(c3ccnc(N4CCCC4)n3)C2)c1` (racemic) registered an EC50 of 275 nM. Also, the result in series [3], in [4], in series [5], in series [6], in series [7] and in [8] was inactive. Moreover, the result in series [9], in series [10], in series [11], in [12] and in series [13] was inactive.
The compound `C[C@@H]1C[C@H](c2ccnc(N3CCCC3)n2)CN(C(=O)c2c[nH]c(C#N)c2)C1` gave an EC50 in series [1] of 251 nM. Besides, the CLint scaled in [14] was 90 mL/min/kg.
With `Cn1cc(C(=O)N2CCOC(c3ccnc(N4CCCC4)n3)C2)cc1C#N` (racemic), in series [1], the EC50 was above 25000 nM.
`CCc1nccc(C2CCCN(C(=O)c3c[nH]c(C#N)c3)C2)n1` (racemic) registered an EC50 in series [1] above 25000 nM.
Consider `NC(=O)c1c[nH]c(C(=O)N2CCOC(c3ccnc(N4CCCC4)n3)C2)c1` (racemic), for which the EC50 in series [1] was above 25000 nM.
In turn, `CO[C@H]1C[C@@H](c2ccnc(N3CC[C@@H](F)C3)n2)CN(C(=O)c2c[nH]c(C#N)c2)C1` registered an EC50 in [1] of 2400 nM.
`N#Cc1ncc(C(=O)N2CCOC(c3ccnc(N4CCCC4)n3)C2)s1` (racemic) displayed an EC50 in [1] above 25000 nM.
As for `N#Cc1cc(C(=O)N2CCCC(F)(c3ccnc(N4CCCC4)n3)C2)c[nH]1` (racemic), it took 676 nM to reach a half-maximal effect in [1] (EC50).
Still for that read-out and setting: then `CO[C@@H]1C[C@H](c2ccnc(N3CCCC3)n2)CN(C(=O)c2c[nH]c(C#N)c2)C1`, with 102 nM.
Consider `C[C@H]1CCCN1c1nccc([C@H]2CCCN(C(=O)c3c[nH]c(C#N)c3)C2)n1`, for which the EC50 in series [1] amounted to 339 nM.
`N#Cc1ccc(C(=O)N2CCOC(c3ccnc(N4CCCC4)n3)C2)[nH]1` (racemic) yielded an EC50 in series [1] above 25000 nM.
Regarding `Cc1[nH]c(C#N)cc1C(=O)N1CCOC(c2ccnc(N3CCCC3)n2)C1` (racemic), the half-maximal effective concentration (EC50) in series [1] came to 490 nM.
Compound `N#Cc1cc(C(=O)N2CCCC(c3ccnc(N4CCCCC4)n3)C2)c[nH]1` (racemic) had an EC50 in series [1] of 2000 nM.
For `N#Cc1cc(C(=O)N2CCC[C@H](c3ccnc(N4CCC(F)(F)C4)n3)C2)c[nH]1`, in [1], the EC50 was found to be 955 nM.
The compound `Cc1cc(C2CCCN(C(=O)c3c[nH]c(C#N)c3)C2)nc(N2CCCC2)n1` (racemic) displayed an EC50 in series [1] above 25000 nM.
The compound `N#Cc1cc(C(=O)N2CCOC(c3ccnc(N4CCCC4)n3)C2)n[nH]1` (racemic) gave a concentration for a half-maximal effect (EC50) in [1] above 25000 nM.
In turn, `N#Cc1cc(C(=O)N2CCCC(c3cc(N4CCCC4)ncn3)C2)c[nH]1` (racemic) registered a concentration for a half-maximal effect (EC50) in [1] above 25000 nM.
In the case of `N#Cc1c[nH]c(C(=O)N2CCO[C@H](c3ccnc(N4CCCC4)n3)C2)c1`, a half-maximal response in [1] (EC50) required 5890 nM. Moreover, the outcome in series [3], in series [4], in series [5], in series [6], in series [7] and in [8] was inactive. Also, the result in series [9], in series [10], in [11], in series [12] and in series [13] was inactive.
In the case of `N#Cc1cc(C(=O)N2CCC[C@H](c3ccnc(N4CC[C@H](F)C4)n3)C2)c[nH]1`, the EC50 in series [1] amounted to 955 nM.
Same read-out and setting: then `N#Cc1cc(C(=O)N2CCC[C@H](c3ccnc(N4CC[C@@H](F)C4)n3)C2)c[nH]1`, with 178 nM.
Still for that read-out and setting: as for `N#Cc1cc(C(=O)N2CCOC(c3ccnc(N4CCCC4)n3)C2)co1` (racemic), the figure is above 25000 nM; as for `C[C@@H]1CC[C@H](c2ccnc(N3CCCC3)n2)CN1C(=O)c1c[nH]c(C#N)c1`, 33 nM; as for `N#Cc1cc(C(=O)N2CCO[C@H](c3ccnc(N4CCCC4)n3)C2)c[nH]1`, 1050 nM.
In turn, `C[C@@H]1CCN(C(=O)c2c[nH]c(C#N)c2)C[C@H]1c1ccnc(N2CCCC2)n1` yielded an EC50 in [1] of 437 nM.
As for `N#Cc1cc(C(=O)N2CCC[C@@H](c3ccnc(N4CCCC4)n3)C2)c[nH]1`, the EC50 in [1] came out at 275 nM; in [2], 6300 nM.
As for `CO[C@@H]1C[C@H](c2ccnc(N3CC[C@@H](F)C3)n2)CN(C(=O)c2c[nH]c(C#N)c2)C1`, the concentration giving a half-maximal response (EC50) is 46 nM in series [1], above 25000 nM in [15], 50 nM in [16] and 63 nM in series [17]. For the same compound, the outcome in the series on Mus musculus [18] was Active. The Activity in the series with Mus musculus [19] came to 150%; with Mus musculus [20], 176%; in the series with Mus musculus [21], 500%.
Compound `Cc1[nH]c(C#N)cc1C(=O)N1CCCC(c2ccnc(N3CCCC3)n2)C1` (racemic) yielded an EC50 in series [1] of 355 nM.
In turn, `CCN(CC)c1nccc(C2CCCN(C(=O)c3c[nH]c(C#N)c3)C2)n1` (racemic) gave an EC50 in [1] above 25000 nM.
Turning to `N#Cc1cc(C(=O)N2CCCC(c3ncnc(N4CCCC4)n3)C2)c[nH]1` (racemic), in [1], the EC50 was above 25000 nM.
For the compound `N#Cc1coc(C(=O)N2CCOC(c3ccnc(N4CCCC4)n3)C2)c1` (racemic), the EC50 in [1] is above 25000 nM.
